According to the supplement of paper PMC13380429:

How the values were obtained:
Settings in all cases: 72 h
Calu-3 [1] = assay: drug sensitivity score (DSS) for viability; higher = more toxic; extreme values may be limits of the assay
Caco-2 [2] = assay: as above
Vero E6 [3] = assay: as above
HepG2 [4] = assay: as above
U2OS [5] = assay: as above
Calu-3 [6] = assay: relative viability EC50 (midpoint between 100% and the lowest measured viability); higher = less toxic
Caco-2 [7] = assay: as above
Vero E6 [8] = assay: as above
HepG2 [9] = assay: as above
U2OS [10] = assay: as above
Calu-3 [11] = assay: cell viability relative to DMSO; higher = less toxic
Caco-2 [12] = assay: as above
Vero E6 [13] = assay: as above
HepG2 [14] = assay: as above
U2OS [15] = assay: as above

Row | SMILES | drug sensitivity score (Calu-3 [1]) | drug sensitivity score (Caco-2 [2]) | drug sensitivity score (Vero E6 [3]) | drug sensitivity score (HepG2 [4]) | drug sensitivity score (U2OS [5]) | relative viability EC50 (Calu-3 [6]) [µM] | relative viability EC50 (Caco-2 [7]) [µM] | relative viability EC50 (Vero E6 [8]) [µM] | relative viability EC50 (HepG2 [9]) [µM] | relative viability EC50 (U2OS [10]) [µM] | cell viability (Calu-3 [11]; 1 nM) [%] | cell viability (Calu-3 [11]; 10 nM) [%] | cell viability (Calu-3 [11]; 100 nM) [%] | cell viability (Calu-3 [11]; 1000 nM) [%] | cell viability (Calu-3 [11]; 10000 nM) [%] | cell viability (Caco-2 [12]; 1 nM) [%] | cell viability (Caco-2 [12]; 10 nM) [%] | cell viability (Caco-2 [12]; 100 nM) [%] | cell viability (Caco-2 [12]; 1000 nM) [%] | cell viability (Caco-2 [12]; 10000 nM) [%] | cell viability (Vero E6 [13]; 1 nM) [%] | cell viability (Vero E6 [13]; 10 nM) [%] | cell viability (Vero E6 [13]; 100 nM) [%] | cell viability (Vero E6 [13]; 1000 nM) [%] | cell viability (Vero E6 [13]; 10000 nM) [%] | cell viability (HepG2 [14]; 1 nM) [%] | cell viability (HepG2 [14]; 10 nM) [%] | cell viability (HepG2 [14]; 100 nM) [%] | cell viability (HepG2 [14]; 1000 nM) [%] | cell viability (HepG2 [14]; 10000 nM) [%] | cell viability (U2OS [15]; 1 nM) [%] | cell viability (U2OS [15]; 10 nM) [%] | cell viability (U2OS [15]; 100 nM) [%] | cell viability (U2OS [15]; 1000 nM) [%] | cell viability (U2OS [15]; 10000 nM) [%]
1 | CC(C)n1nnc2cc(C(=O)O)ccc21 [IBC-293] | 0 | 0 | 0 | 0 | 0 | > 10 | > 10 | > 10 | > 10 | > 10 | 94.9 | 91 | 100 | 101 | 103 | 102 | 98 | 101 | 106 | 95.2 | 96.6 | 98.5 | 102 | 104 | 99.5 | 93.2 | 105 | 91 | 106 | 102 | 102 | 96 | 98.3 | 97.6 | 98.6
2 | COc1cc(C(=O)NC2CCCNC2)cc(OC)c1OC (stereo not given) [troxipide] | 0 | 0 | 0 | 0 | 0 | > 10 | > 10 | > 10 | > 10 | > 10 | 97.5 | 91.3 | 94 | 106 | 97.8 | 99 | 103 | 98.4 | 97.4 | 99.6 | 103 | 109 | 101 | 102 | 98.4 | 103 | 109 | 97.4 | 103 | 104 | 106 | 96.3 | 102 | 98.8 | 101
3 | COc1cccc(CN(C(=O)CC(C)(C)C)[C@H]2C[C@@H](C(=O)N3CCNCC3)N(Cc3ccc4c(c3)OCO4)C2)c1 | 0 | 0 | 0 | 0 | 0 | > 10 | > 10 | > 10 | > 10 | > 10 | 93.6 | 98 | 95.3 | 92.4 | 102 | 98.4 | 106 | 98.3 | 102 | 87.5 | 101 | 102 | 107 | 98.2 | 95.6 | 94.8 | 96.2 | 87.2 | 104 | 91.4 | 95.2 | 98 | 97.3 | 97 | 90.7
4 | Oc1c(Br)cc(Br)c2cccnc12 [broxyquinoline] | 0 | 0 | 0 | 0 | 0 | > 10 | > 10 | > 10 | > 10 | > 10 | 108 | 82.2 | 90.7 | 97.6 | 99 | 89.4 | 92.5 | 93.2 | 98.9 | 112 | 102 | 94.1 | 102 | 110 | 99 | 84.2 | 108 | 110 | 100 | 87.6 | 96 | 98.7 | 101 | 98.2 | 94.6
5 | CN1C/C=C/CCOc2cccc(c2)-c2ccnc(n2)Nc2cccc(c2)C1 [TG-02] | 12.4 | 16.2 | 17.1 | 19.3 | 20 | 0.167 | 0.105 | 0.297 | 0.207 | 0.204 | 97.1 | 97.7 | 87.7 | 43.4 | 51.8 | 89.8 | 88.2 | 70.4 | 28.4 | 38.9 | 99.4 | 97.8 | 90 | 13.6 | 5.6 | 111 | 104 | 79.2 | 9.1 | 3.2 | 102 | 101 | 86 | 2.5 | 1.8
6 | NC(=O)c1ncn([C@@H]2O[C@H](CO)[C@@H](O)[C@H]2O)c1O [mizoribine] | 0 | 0 | 0 | 0 | 0 | > 10 | > 10 | > 10 | > 10 | > 10 | 104 | 101 | 95.3 | 102 | 88.4 | 93.8 | 97.7 | 94.7 | 97.1 | 97.6 | 101 | 103 | 99.1 | 97.8 | 101 | 112 | 100 | 110 | 96.2 | 106 | 101 | 103 | 99.6 | 96.3 | 99.1
7 | Cc1cc(OCCCS(C)(=O)=O)cc(C)c1-c1cccc(COc2ccc3c(c2)OC[C@H]3CC(=O)O)c1 [TAK-875] | 0 | 2.5 | 0 | 0 | 0 | > 10 | > 10 | > 10 | > 10 | > 10 | 98.2 | 105 | 99.8 | 111 | 102 | 99.8 | 101 | 89.3 | 85.4 | 77.8 | 100 | 106 | 97.3 | 98.7 | 96.3 | 93.8 | 97.3 | 95.9 | 94.4 | 96.7 | 95.6 | 98.7 | 96.9 | 96.7 | 94.3
